# In publication PMC8231654, “Evaluation of Cytotoxic and Mutagenic Effects of the Synthetic Cathinones Mexedrone, α-PVP and α-PHP” (International Journal of Molecular Sciences, 2021):
# Read-outs that look alike come from different tables or passages of the source.
# Key:
# [1] = test system: TK6 cells; experiment: Cytostasis analysis (Relative Population Doubling); assay type: cell-based, human; settings: 26 h; for Relative Population Doubling (RPD): mean ± SEM; for Cytostatic effect / RPD versus OECD threshold (55 ± 5%): all concentrations up to 100 µM
# Description: In parallel, always using the Guava ViaCount Reagent, the number of cells seeded at time 0 and the one measured at the end of the treatment time were used to check the correct replication and to calculate the Population Doublings (PD) values. Subsequently, the PD obtained in the control cultures was compared to that measured in the treated cultures obtaining the Relative Population Doublings (RPD). PD and RPD were calculated with the following formulas:(1) PD=logpost−initial cell number/initial cell number÷log2 (2) RPD=PD in treated cultures/PD in control cutures x 100
# Similarly, to cytotoxicity, the cytostasis was checked, in order to verify that cell proliferation respected the threshold established by OECD guideline (55 ± 5%).
# [2] = test system: TK6 cells; experiment: Apoptosis analysis (Guava Nexin assay); assay type: cell-based, human; settings: 26 h, all selected concentrations
# Description: The percentage of apoptotic cells was evaluated by the Guava Nexin Assay according to the procedure by Lenzi et al. and Cocchi et al..
# The reagent contains the 7-aminoactinomycin D (7- AAD), a cells non-permeant dye that allows the discrimination between live and dead cells, and the Annexin-V-PE that allows the identification of apoptotic cells by binding to the phosphatidylserine on the cell surface.
# 100 μL of reagent was added to 100 μL of cell suspension (~1 × 10^5 cells) and incubated for 20 min at RT. Then, a total of 2000 events were acquired and analyzed by Guava Nexin software.
# The apoptotic cell percentages recorded in the cultures treated with synthetic cathinones different concentrations were normalized on those recorded in the untreated control cultures, accounted equal to 1 and expressed as apoptotic fold increase.
# [3] = test system: TK6 cells; experiment: In vitro micronucleus test by flow cytometry, without S9 mix; assay type: cell-based, human; settings: 26 h, 75 and 100 µM
# Description: (§1) The analysis of the MNi frequency was performed using an automated protocol published by Lenzi et al..
# (§2) A total of 10,000 nuclei, derived from viable and proliferating cells, and the corresponding number of MNi were acquired and analyzed by Guava Incyte software. The discrimination between nuclei and MNi occurs on the basis of the different size and intensity of green fluorescence.
# (§3) The MNi frequency (number of MNi/10,000 nuclei) recorded in treated cultures were normalized on those recorded in the concurrent negative control cultures, accounted equal to 1 and expressed as MNi frequency fold increase.
# (§4) We used the clastogen MMC and the aneuploidogen VINB as positive controls in absence of S9 mix, while CP, a clastogen agent requiring metabolic activation, in presence of S9 mix.
# [4] = test system: TK6 cells; experiment: In vitro micronucleus test by flow cytometry, with S9 mix; assay type: cell-based, human; settings: 3 h + S9 mix, 23 h recovery, 75 and 100 µM
# Description: as §1, §2, §3
# The exogenous metabolic activation system employed is a co-factor-supplemented post-mitochondrial fraction (S9 mix) prepared from the livers of rats treated with enzyme-inducing agent Aroclor 1254. The final concentration of S9 in the culture medium was 0.75%.
# as §4
# [5] = test system: DAT; set-up: method as in PMID 27524685; settings: monoamine uptake, rats' brain synaptosomes; cited from earlier work
# [6] = test system: NET; set-up: method as in PMID 27524685; settings: monoamine uptake, rats' brain synaptosomes; cited from earlier work
# [7] = test system: SERT; set-up: method as in PMID 27524685; settings: monoamine uptake, rats' brain synaptosomes; cited from earlier work
# [8] = test system: SERT; set-up: method as in PMID 27524685; settings: rats' brain synaptosomes; read-out: releasing activity on SERT EC50; cited from earlier work
# [9] = test system: TK6 cells; experiment: Cytotoxicity analysis (Guava ViaCount, cell viability); settings: 26 h, 25-100 µM
# [10] = cited from earlier work; for mutagenic potential: psychoactive phenethylamines; for mutagenic capacity in terms of increasing the frequency of MNi: synthetic cannabinoids, first study of 2020
# [11] = test system: rats; settings: in rats; cited from earlier work
# [12] = test system: mice; settings: in mice; cited from earlier work
# [13] = test system: dopamine transporter (DAT); set-up: method as in PMID 25624004, PMID 27799294; settings: reuptake inhibition, human embryonic kidney 293 cells; cited from earlier work
# [14] = test system: norepinephrine transporter (NET); set-up: method as in PMID 25624004, PMID 27799294; settings: reuptake inhibition, human embryonic kidney 293 cells; cited from earlier work
# [15] = test system: serotonin transporter (SERT); set-up: method as in PMID 25624004, PMID 27799294; settings: human embryonic kidney 293 cells; cited from earlier work
# [16] = test system: dopamine (DAT), norepinephrine (NET), and serotonin (SERT) transporters; set-up: method as in PMID 25624004, PMID 27799294; settings: human embryonic kidney 293 cells; cited from earlier work
# [17] = set-up: method as in PMID 26505776, PMID 29963212, PMID 33379373; settings: human urine of a drug abuser; cited from earlier work
# [18] = test system: C2C12 myoblasts; set-up: method as in PMID 30925718; settings: 24 h, concentrations 10 to 20 times higher than in this paper; cited from earlier work
# [19] = set-up: method as in PMID 23797910, PMID 26014283, PMID 27142261; settings: in vitro studies; cited from earlier work
smiles,measurement,setting,value
"CNC(COC)C(=O)c1ccc(C)cc1 (stereo not shown) [Mexedrone, 3-methoxy-2-(methylamino)-1-(4-methylphenyl)propan-1-one]",Relative Population Doubling (RPD),[1]; 25 µM,97.0% ± 3.2
same,Relative Population Doubling (RPD),[1]; 35 µM,92.0% ± 4.2
same,Relative Population Doubling (RPD),[1]; 50 µM,88.4% ± 7.9
same,Relative Population Doubling (RPD),[1]; 75 µM,95.2% ± 3.5
same,Relative Population Doubling (RPD),[1]; 100 µM,90.1% ± 3.6
same,Cytostatic effect / RPD versus OECD threshold (55 ± 5%),[1],do not induce any cytotoxic or cytostatic effects
same,Apoptosis fold increase versus negative control,[2],never reached a doubling
same,MNi frequency fold increase versus negative control,[3],significant increase of the MNi frequency at both the concentrations tested
same,MNi frequency fold increase versus negative control,[4],statistically significant increase at both concentrations tested
same,IC50,[5],~6800 nM
same,IC50,[6],~8800 nM
same,IC50,[7],~5200 nM
same,EC50,[8],2500 nM
same,Cell viability / cytotoxic effect versus negative control and OECD threshold (55 ± 5%),[9],do not induce any cytotoxic or cytostatic effects
COc1ccc(OC)c(CCN)c1 [2C-H],mutagenic potential,[10],proved to be mutagen
COc1cc(CCN)c(OC)cc1I [2C-I],mutagenic potential,[10],proved to be mutagen
O=C(Oc1cccc2cccnc12)c1cn(CC2CCCCC2)c2ccccc12 [BB-22],mutagenic capacity in terms of increasing the frequency of MNi,[10],mutagenic capacity
COc1cc(CCNCc2ccccc2OC)c(OC)cc1Br [25B-NBOMe],mutagenic potential,[10],proved to be mutagen
O=C(NC12CC3CC(CC(C3)C1)C2)c1cn(CCCCCF)c2ccccc12 [STS-135],mutagenic capacity in terms of increasing the frequency of MNi,[10],mutagenic capacity
"CNC(C)C(=O)c1ccc(C)cc1 (stereo not shown) [mephedrone, 4-methyl-N-methyl cathinone]",mutagenicity,[11],mutagenicity demonstrated
C[C@H](N)C(=O)c1ccccc1 [cathinone],mutagenicity,[12],mutagenicity demonstrated
"CCCCC(C(=O)c1ccccc1)N1CCCC1 (stereo not drawn) [α-PHP, alpha-pyrrolidinohexanophenone]",Relative Population Doubling (RPD),[1]; 25 µM,88.3% ± 1.3
same,Relative Population Doubling (RPD),[1]; 35 µM,94.4% ± 1.7
same,Relative Population Doubling (RPD),[1]; 50 µM,96.8% ± 3.2
same,Relative Population Doubling (RPD),[1]; 75 µM,85.2% ± 3.5
same,Relative Population Doubling (RPD),[1]; 100 µM,85.9% ± 5.6
same,Cytostatic effect / RPD versus OECD threshold (55 ± 5%),[1],do not induce any cytotoxic or cytostatic effects
same,Apoptosis fold increase versus negative control,[2],never reached a doubling
same,MNi frequency fold increase versus negative control,[3],no statistically significant increase
same,MNi frequency fold increase versus negative control,[4],statistically significant increase was observed only at the highest concentration tested
same,IC50,[13],20 nM
same,IC50,[14],40 nM
same,IC50,[15],> 10000 nM
same,neurotransmitters release,[16],do not enhance neurotransmitters release
same,number of glucuronide conjugates identified,[17],9
same,number of phase I metabolites identified,[17],19
same,Cell viability / cytotoxic effect versus negative control and OECD threshold (55 ± 5%),[9],do not induce any cytotoxic or cytostatic effects
COc1cc(CCN)c(OC)cc1Br [2C-B],mutagenic potential,[10],proved to be mutagen
"CCCC(C(=O)c1ccccc1)N1CCCC1 (stereo not drawn) [α-PVP, alpha-pyrrolidinopentiophenone]",Relative Population Doubling (RPD),[1]; 25 µM,91.5% ± 5.9
same,Relative Population Doubling (RPD),[1]; 35 µM,88.4% ± 6.8
same,Relative Population Doubling (RPD),[1]; 50 µM,88.7% ± 7.1
same,Relative Population Doubling (RPD),[1]; 75 µM,89.9% ± 4.6
same,Relative Population Doubling (RPD),[1]; 100 µM,87.6% ± 6.3
same,Cytostatic effect / RPD versus OECD threshold (55 ± 5%),[1],do not induce any cytotoxic or cytostatic effects
same,Apoptosis fold increase versus negative control,[2],never reached a doubling
same,MNi frequency fold increase versus negative control,[3],no statistically significant increase
same,MNi frequency fold increase versus negative control,[4],significant increase in MNi frequency at both concentrations tested
same,IC50,[13],40 nM
same,IC50,[14],20 nM
same,IC50,[15],> 10000 nM
same,neurotransmitters release,[16],do not enhance neurotransmitters release
same,mitochondrial superoxide production,[18],statistically significant increase in mitochondrial superoxide production
same,number of phase I metabolites identified,[19],6
same,Cell viability / cytotoxic effect versus negative control and OECD threshold (55 ± 5%),[9],do not induce any cytotoxic or cytostatic effects
CCCCCn1nc(C(=O)OC23CC4CC(CC(C4)C2)C3)c2ccccc21 [APINAC],mutagenic capacity in terms of increasing the frequency of MNi,[10],mutagenic capacity
